ChEMBL document CHEMBL1157862, “Synthesis and pharmacological evaluation of novel fused thiophene derivatives as 5-HT2A receptor antagonists: molecular modeling study” (Eur J Med Chem, 2010)

What follows are molecules tested against 5-hydroxytryptamine receptor 2A (Rattus norvegicus) (UniProt P14842) (assay: Antagonist activity at 5HT2A receptor in Sprague-Dawley rat assessed as inhibition of 5HT-induced pulmonary arterial pressure at 100 uM relative to 5HT).
Assay type: functional

Chain of 5-hydroxytryptamine receptor 2A (Rattus norvegicus) (P14842 whole entry): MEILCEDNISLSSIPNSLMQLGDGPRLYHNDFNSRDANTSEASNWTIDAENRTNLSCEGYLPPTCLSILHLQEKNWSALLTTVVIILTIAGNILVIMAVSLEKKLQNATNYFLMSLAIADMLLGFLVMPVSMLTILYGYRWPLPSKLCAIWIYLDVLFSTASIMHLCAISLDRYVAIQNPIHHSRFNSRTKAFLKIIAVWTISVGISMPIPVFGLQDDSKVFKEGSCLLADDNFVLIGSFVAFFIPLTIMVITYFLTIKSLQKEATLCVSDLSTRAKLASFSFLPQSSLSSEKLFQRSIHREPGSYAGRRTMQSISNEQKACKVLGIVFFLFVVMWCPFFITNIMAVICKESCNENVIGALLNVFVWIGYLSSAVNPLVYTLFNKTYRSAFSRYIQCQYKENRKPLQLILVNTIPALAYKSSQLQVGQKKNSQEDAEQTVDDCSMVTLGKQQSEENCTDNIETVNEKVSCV

SMILES	inhibition
CN1CCc2c(sc3[nH]c(=O)n(CCN4CCN(c5ccccc5)CC4)c(=O)c23)C1	60%
O=c1[nH]c2sc3c(c2c(=O)n1CCN1CCN(c2ccccc2)CC1)CCC3	86%
CN1CCc2c(sc3[nH]c(=O)n(CCN4CCN(c5ccc(F)cc5)CC4)c(=O)c23)C1	63%
COc1ccccc1N1CCN(CCn2c(=O)[nH]c3sc4c(c3c2=O)CCN(C)C4)CC1	65%
CCOC(=O)c1c(NC(=O)CN2CCN(c3ccccc3OC)CC2)sc2c1CCN(C)C2	88%
CCOC(=O)c1c(NC(=O)CN2CCN(c3ccccc3)CC2)sc2c1CCN(C)C2	62%
CCOC(=O)c1c(NC(=O)CN2CCN(c3ccccc3OCC)CC2)sc2c1CCN(C)C2	65%
